Data published in ChEMBL document CHEMBL3137667, “[Drug-induced liver injury; fourteenth updated edition of the bibliographic database of liver injuries and related drugs]” (Gastroenterol Clin Biol, 2004).

Key:
[1] = Highest frequency of moderate liver toxicity observed during clinical trials, expressed as a percentage. [column '% BIOL' in source]; settings: human
[2] = Highest frequency of acute liver toxicity observed during clinical trials, expressed as a percentage. [column '% AIGUE' in source]; settings: human
[3] = Comments (NB not yet translated). [column 'COMMENTAIRES' in source]; settings: human
[4] = Times to onset, minimal and maximal, observed in the indexed observations. [column 'DELAI' in source]; settings: human
[5] = human, serum
[6] = human, serum; remark: listed apart in the source
[7] = human
[8] = human; remark: listed apart in the source
[9] = human; remark: listed apart in the source
[10] = human, serum, 4383 h
[11] = human; remark: listed apart in the source
[12] = human; remark: listed apart in the source
[13] = human; remark: listed apart in the source
[14] = human; remark: listed apart in the source
[15] = human; remark: listed apart in the source
[16] = human; remark: listed apart in the source
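For Hepatotoxicity (association with vascular disease) in this document: count of indexed literature references reporting vascular liver injury in humans, e.g. peliosis hepatitis, hepatic veno-occlusive disease or Budd-Chiari syndrome.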
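For Hepatotoxicity (benign tumour) in this document: value is a count of indexed literature references citing a benign tumour confirmed by histopathology.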
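For Hepatotoxicity (choleostasis) in this document: human cholestatic liver injury, shown by histopathology or by peak ALT or AST elevation over alkaline phosphatase ratio below 2, value counts indexed literature reports.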
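For Hepatotoxicity (chronic liver disease) in this document: chronic liver injury confirmed by histopathology or persistently raised serum aminotransferase activity beyond 6 months, value given as the count of indexed literature references.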
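For Hepatotoxicity (cirrhosis) in this document: value is a count of indexed literature references reporting cirrhosis confirmed by histopathology.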
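For Hepatotoxicity (cytolytic) in this document: human cytolytic liver injury, shown by histopathology or by a ratio above 5 of peak ALT or AST elevation to alkaline phosphatase elevation, value counts indexed references.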
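For Hepatotoxicity (granulomatous hepatitis) in this document: value is a count of indexed literature references reporting granulomatous liver disease confirmed by histopathology.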
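For Hepatotoxicity (malignant tumour) in this document: malignant tumour confirmed by histopathology, value gives the count of indexed literature references reporting it.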
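For Hepatotoxicity (severe hepatitis) in this document: human clinical data: severe hepatitis, meaning potentially life-threatening liver failure or clinically observed cases, the value counts how many indexed literature references report it.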
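For Hepatotoxicity (steatosis) in this document: steatosis confirmed by histopathology, value is the count of indexed references.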

Row | Molecule | Hepatotoxicity (moderate) [1] [%] | Hepatotoxicity (acute) [2] [%] | Hepatotoxicity (comment) [3] | Hepatotoxicity (time to onset) [4] | Hepatotoxicity (moderate) [5] | Hepatotoxicity (acute) [6] | Hepatotoxicity (cytolytic) [7] | Hepatotoxicity (choleostasis) [8] | Hepatotoxicity (severe hepatitis) [9] | Hepatotoxicity (chronic liver disease) [10] | Hepatotoxicity (cirrhosis) [11] | Hepatotoxicity (granulomatous hepatitis) [12] | Hepatotoxicity (association with vascular disease) [13] | Hepatotoxicity (steatosis) [14] | Hepatotoxicity (malignant tumour) [15] | Hepatotoxicity (benign tumour) [16] | also measured
1 | RITUXIMAB | 5.6 | 0 | REACTIVATION_HVB | 2 months - 7 months | 1 | 4 | 4 | 0 | 3 | 0 | 0 | 0 | 0 | 0 | 0 | 0 | –
2 | CCc1cccc2c3c([nH]c12)C(CC)(CC(=O)O)OCC3 (stereo not drawn) [ETODOLAC] | 4 | 0 | AC_ANTI-N/-ML | 4 days - 16 weeks | 4 | 3 | 2 | 2 | 1 | 0 | 0 | 0 | 0 | 1 | 0 | 0 | –
3 | CC(C)(Oc1ccc(CCNC(=O)c2ccc(Cl)cc2)cc1)C(=O)O [BEZAFIBRATE] | 10 | 0 | I/PERHEXILINE | 3 weeks - 3 months | 5 | 2 | 1 | 0 | 1 | 0 | 0 | 0 | 0 | 0 | 0 | 0 | –
4 | CN(C)CC/C=C1\c2ccccc2CSc2ccccc21 [DOTHIEPIN] | 4.5 | 0 | RC/PAROXETINE | 40 days - 69 days | 1 | 3 | 2 | 2 | 0 | 0 | 0 | 0 | 0 | 1 | 0 | 0 | –
5 | CC(CN(C)C)CN1c2ccccc2Sc2ccc(C#N)cc21 (stereo not drawn) [CYAMEMAZINE] | 0 | 0 | CHOLANGITE #CIRROSE_BILIAIRE RC/DESIPRAMINE/TRIMIPRAMINE | 2 days - 7 weeks | 0 | 4 | 1 | 3 | 1 | 0 | 0 | 1 | 0 | 0 | 0 | 0 | –
6 | CN1CCN(CCCN2c3ccccc3Sc3ccc(C(F)(F)F)cc32)CC1 [TRIFLUOPERAZINE] | 0 | 0 | #CBP | 2 weeks - 8 years | 2 | 5 | 0 | 4 | 0 | 0 | 1 | 0 | 0 | 0 | 0 | 0 | –
7 | GONADOTROPIN, SERUM | 0 | 0 | HNF | 39 days - 6 months | 0 | 1 | 1 | 0 | 0 | 0 | 0 | 0 | 0 | 0 | 0 | 1 | –
8 | CC1COc2c(N3CCN(C)CC3)c(F)cc3c(=O)c(C(=O)O)cn1c23 (stereo not drawn) [OFLOXACIN] | 42.2 | 18.2 | I/PYRAZINAMIDE | 4 days - 26 weeks | 61 | 11 | 6 | 5 | 2 | 0 | 0 | 1 | 0 | 0 | 0 | 0 | –
9 | CC(=O)[C@@]1(O)CC[C@H]2[C@@H]3C[C@H](C)C4=CC(=O)CC[C@]4(C)[C@H]3CC[C@@]21C | – | – | LITHIASE | 1 month - 1.7 years | 5 | 3 | – | – | – | 0 | 0 | – | 0 | 0 | 0 | 0 | Hepatotoxicity (moderate) ([1]; Liver): 4.9%; Hepatotoxicity (acute) ([2]; Liver): 3.3%; Hepatotoxicity (cytolytic) ([7]; Liver): 1; Hepatotoxicity (choleostasis) ([8]; Liver): 1; Hepatotoxicity (severe hepatitis) ([9]; Liver): 1; Hepatotoxicity (granulomatous hepatitis) ([12]; Liver): 0
10 | CCc1ccc(CCOc2ccc(CC3SC(=O)NC3=O)cc2)nc1 (stereo not drawn) [PIOGLITAZONE] | 0.4 | 0 | CHOLESTASE_PROLONGEE PERICHOLANGIOLITE CHOLANGIOLITE | 23 days - 7 months | 3 | 5 | 3 | 3 | 1 | 0 | 0 | 0 | 0 | 0 | 0 | 0 | –
11 | O=C(O)C1N=C(c2ccccc2)c2cc(Cl)ccc2NC1=O (stereo not drawn) [CLORAZEPIC ACID] | 0 | 0 | CHOLESTASE_PROLONGEE | 2 months - 3 months | 0 | 3 | 2 | 3 | 0 | 0 | 0 | 0 | 0 | 0 | 0 | 0 | –
12 | Cc1ccc(C(=O)Nc2ccc(S(=O)(=O)O)c3cc(S(=O)(=O)O)cc(S(=O)(=O)O)c23)cc1NC(=O)c1cccc(NC(=O)Nc2cccc(C(=O)Nc3cc(C(=O)Nc4ccc(S(=O)(=O)O)c5cc(S(=O)(=O)O)cc(S(=O)(=O)O)c45)ccc3C)c2)c1 [SURAMIN] | 63 | 6.3 | REACTIVATION_HVB | 1 week - 8 months | 11 | 3 | 1 | 0 | 1 | 0 | 0 | 0 | 0 | 0 | 0 | 0 | –
13 | Nc1ncnc2c1ncn2[C@@H]1O[C@H](CO)[C@@H](O)[C@@H]1O [VIDARABINE] | 17 | 0 | AGGRAVATION_HEPATITE_VIRALE | 1 week | 5 | 0 | 0 | 0 | 1 | 0 | 0 | 0 | 0 | 0 | 0 | 0 | –
